Laboratory results: patent publication US4771060A, “Novel skin-whitening agent” (Teikoku Seiyaku Kabushiki Kaisha, priority 1986, dated 1988)

Key:
[1] = Acute toxicity, oral, rats; settings: rat, in vivo, suspension in 0.5% sodium carboxymethylcellulose, 7 days
Protocol: A suspension of pionine in a 0.5% sodium carboxymethylcellulose solution was orally administered to Wistar rats (weighing about 130 g, one group: ten animal) with a stomach sonde. The number of dead rats were counted for 7 days, and LD50 (g/kg) was calculated by van der Werden's method. […] Thus, it is clear that pionine is a compound having an extremely wide safety range, taking into account the above experimental results that it is effective in a concentration of 10 μg/l for preventing and treating melanism of goldfish.

[2] = test system: surface melanism in yellow goldfish; experiment: Therapeutic effect on surface melanism in yellow goldfish; format: in vivo, goldfish (Ryukins); settings: for goldfish returned to their original yellow surface color: after 12 weeks, control 0%
Protocol: Ryukins (weighing 3-5 g) were fed in a 0.9% NaCl aqueous solution for 12 days to induce surface melanism. The goldfish were grouped into five fish each. In two experiment groups, the fish were fed in a water bath for 12 weeks, during which pionine was add in an amount of 1 μg/l and 10 μg/l, respectively, three times per week. In the control group, the fish were fed in pure water. The recovery from surface melanism of the experiment groups was compared with that of control group.

[3] = test system: Black popeyed goldfish; experiment: Action in normal black-goldfish; format: in vivo; settings: 10 μg/l three times per week, after 12 weeks
Protocol: Black popeyed goldfish (each group: 5 fish) were fed in a water bath. In experimental group, pionine was added to the water bath in a concentration of 10 μg/l, three times per week. In the control group, no pionine was added.

[4] = test system: stains (chloasma) and pigmentations induced by inflammation; experiment: Clinical test, oral pionine; format: in vivo, human; design: key to Findings on skin: -1: deepened; 0: not changed; +1: faded; +2: completely disappeared
Protocol: A hundred μg of pionine was orally administered to each of three patients having stains (chloasma) and each of three patients having pigmentations induced by inflammation, once a day when the patients were hungry. This test was continued for 6 months. The effect of pionine was evaluated and classified into four classes by the degree of color as follows:
-1: deepened, 0: not changed, +1: faded,
+2: completely disappeared.
Evaluation by the patients themselves is also mentioned therein. Meanwhile, a patch test as to known cosmetics which were used by the patients was made for all patients before the clinical test, and if the result was positive (i.e. the known cosmetics are […]), the use of the cosmetics was prohibited.

[5] = test system: surface melanism in yellow goldfish; experiment: Preventive effect on surface melanism in yellow goldfish; format: in vivo, goldfish (Ryukins); settings: then 0.9% NaCl 12 days, 12th day, 5 fish, control 100%
Protocol: (§1) Ryukins [a kind of goldfish (weighing 3-5 g, one group: 5 fish)] were fed in water containing 1 μg/l or 10 μg/l of pionine (No. 1 compound in the above Preparations) for 20 days. The goldfish were then transferred into a water bath filled with water containing 0.9% by weight of NaCl in order to induce melanism and fed for 12 days. As a control group, the fish were fed likewise except no active compound was used. The extent of surface melanism and the activity of tyrosinase in the group administered with pionine were compared with those of the control group.

[6] = test system: tyrosinase; experiment: Determination of tyrosinase activity in scales of treated goldfish; format: in vivo, goldfish (Ryukins); settings: scales on 12th day, control 0.06
Protocol: as §1
As samples to be tested, scales were picked from goldfish of each of groups on 12th day. The samples were each homogenized with 1M phosphate buffer (pH 6.8) and centrifuged. As to the supernatant, tyrosinase was determined by a colorimetry according to the procedure of N. H. Horowitz and Pomerantz (cf. Method in Enzymology, XVIIA, 615-626).

[7] = test system: tyrosinase derived from mushroom; experiment: Direct effect on tyrosinase activity (L-DOPA substrate); format: biochemical
Protocol: The direct effect of pionine to tyrosinase activity was studied. 0.1 ml of a solution of pionine having various concentrations was mixed with 0.1 ml of 290 unit/ml solution of tyrosinase derived from mushroom (Sigma). […]

[8] = test system: yellow goldfish; experiment: Toxicity in yellow goldfish; format: in vivo; settings: 5 mg/l in water for three days, ten yellow goldfish

CCCCCCCN1C(C)=CSC1=Cc1scc(C)[n+]1CCCCCCC [pionine, 4,4'-dimethyl-3,3'-di-n-heptyl-2,2'-monomethinethiazolocyanine iodide]
LD50 at 168 h ([1]; female Wistar rats): 500 mg/kg
LD50 at 168 h ([1]; male Wistar rats): 470 mg/kg
goldfish returned to their original yellow surface color ([2]; 1 μg/l three times per week): 40%
goldfish returned to their original yellow surface color ([2]; 10 μg/l three times per week): 80%
recovery from surface melanism ([2]; 1 and 10 μg/l groups, within three weeks): not observed
blackness of normal black goldfish versus control [3]: no differences were observed
patients with positive effect ([4]; 5/6 patients, 100 μg orally once a day, 6 months): 83%
Side effect ([4]; Run No. 1, 100 μg orally once a day): No
Evaluation by patients ([4]; Run No. 1, Chloasma): effective
Findings on skin ([4]; Run No. 1, Chloasma, 100 μg orally once a day, at 4th month): +2
Evaluation by patients ([4]; Run No. 2, Chloasma): not effective
Findings on skin ([4]; Run No. 2, Chloasma, 100 μg orally once a day, at 6th month): 0
Evaluation by patients ([4]; Run No. 3, Chloasma): effective
Findings on skin ([4]; Run No. 3, Chloasma, 100 μg orally once a day, at 5th month): +2
Findings on skin ([4]; Run No. 4, Pigmentation after inflammation, 100 μg orally once a day, at 3rd month): +2
Findings on skin ([4]; Run No. 5, Pigmentation after inflammation, 100 μg orally once a day, at 5th month): +2
Findings on skin ([4]; Run No. 6, Pigmentation after inflammation, 100 μg orally once a day, at 3rd month): +1
side effect in all patients ([4]; six patients, 100 μg orally once a day, 6 months): no side effect was observed
fish with surface melanism observed ([5]; 1 μg/l in water for 20 days): 40%
fish with surface melanism observed ([5]; 10 μg/l in water for 20 days): none
tyrosinase activity, ΔOD at 475 nm/mg protein/30 min ([6]; 1 μg/l group): 0.05 /mg protein/30 min
tyrosinase activity, ΔOD at 475 nm/mg protein/30 min ([6]; 10 μg/l group): 0.02 /mg protein/30 min
effect on tyrosinase activity ([7]; addition of 5×10^-2 to 10^-5 % of pionine): did not affect
tyrosinase inhibitory activity ([7]; direct effect, summary statement): no tyrosinase inhibitory activity
ΔOD (at 475 nm) ([7]; pionine 5 × 10^-2 %, 2 min., control 0.250): 0.248
ΔOD (at 475 nm) ([7]; pionine 5 × 10^-2 %, 5 min., control 0.540): 0.540
ΔOD (at 475 nm) ([7]; pionine 5 × 10^-2 %, 10 min., control 0.782): 0.786
ΔOD (at 475 nm) ([7]; pionine 5 × 10^-3 %, 2 min., control 0.250): 0.252
ΔOD (at 475 nm) ([7]; pionine 5 × 10^-3 %, 5 min., control 0.540): 0.544
ΔOD (at 475 nm) ([7]; pionine 5 × 10^-3 %, 10 min., control 0.782): 0.780
ΔOD (at 475 nm) ([7]; pionine 5 × 10^-4 %, 2 min., control 0.250): 0.252
ΔOD (at 475 nm) ([7]; pionine 5 × 10^-4 %, 5 min., control 0.540): 0.540
ΔOD (at 475 nm) ([7]; pionine 5 × 10^-4 %, 10 min., control 0.782): 0.784
ΔOD (at 475 nm) ([7]; pionine 5 × 10^-5 %, 2 min., control 0.250): 0.250
ΔOD (at 475 nm) ([7]; pionine 5 × 10^-5 %, 5 min., control 0.540): 0.538
ΔOD (at 475 nm) ([7]; pionine 5 × 10^-5 %, 10 min., control 0.782): 0.780
abnormality [8]: no abnormality was observed
death of fish [8]: no fish was died
